From publication PMC9822769, “The Strange Case: The Unsymmetric Cisplatin-Based Pt(IV) Prodrug [Pt(CH3COO)Cl2(NH3)2(OH)] Exhibits Higher Cytotoxic Activity with respect to Its Symmetric Congeners due to Carrier-Mediated Cellular Uptake” (Bioinorganic Chemistry and Applications, 2022)

Experiments:
HCT 116 = test: Resazurin reduction cell viability assay, HCT 116; format: cell-based, human; conditions: 72 h of treatment; mean ± sd
Experimental: (§1) The compounds under investigation were tested on a panel of commercial human cancer cell lines: ovarian endometrioid adenocarcinoma A2780 (ICLC HTL98008), its cisplatin-resistant variant A2780cisR (ECACC 93112517), colon carcinoma HCT 116 (ECACC 91091005), breast invasive ductal carcinoma MCF7 (ECACC 86012803), embryonal carcinoma NTERA-2 clone D1 (also known as NT2/D1, ICLC HTL97025), and lung adenocarcinoma A549 (ICLC HTL03001). Furthermore, a cell line derived from the pleural effusion of a patient with untreated malignant pleural mesothelioma (MPM) was added to the panel, namely, MM98 (sarcomatoid phenotype). Commercial cells were purchased from the European Collection of Authenticated Cell Cultures (ECACC, UK) or the Interlab Cell Line Collection (ICLC, Genoa, Italy), while the MM98 cell line was obtained from the Pathology Unit of the National Hospital of Alessandria (Italy).
(§2) The following media were used to grow the cells: RPMI 1640 (for A2780, A2780cisR, NT2/D1, and A549 cells), DMEM (for MCF7 cells), DMEM supplemented with nonessential amino acids (for MM98 cells), and McCoy's 5A (for HCT 116 cells). All media contained L-glutamine (2 mM) and were added with penicillin (100 IU·mL^−1), streptomycin (100 mg·L^−1), and 10% heat inactivated FBS. To maintain resistance in A2780cisR cells, cisplatin (1 μM) was added to the medium every two passages.
(§3) Continuous treatments (CT) were carried out at 37°C in a humidified chamber with 5% CO2. Cisplatin was dissolved in a 0.9% w/v NaCl aqueous solution and brought to pH = 3 with HCl (final stock concentration 1 mM). The Pt(IV) Complexes 1–3 were dissolved in milliQ water (final stock concentration 5 mM) and stored at −20°C. The stock concentration was confirmed with inductively coupled plasma-mass spectrometry (ICP-MS) measurements. The mother solutions were diluted in a complete medium to the required concentration.
(§4) To assess the growth inhibition of the compounds under investigation, a cell viability test (i.e., the resazurin reduction assay) was used. […] At the end of the treatment (72 h), viability was evaluated with 100 μg·mL^−1 resazurin (Acros Chemicals, France) in a fresh medium for 1 h at 37°C, and the amount of the reduced product, resorufin, was measured by fluorescence (excitation λ = 535 nm, emission λ = 595 nm) with a Tecan Infinite F200Pro plate reader (Tecan, Austria). In each experiment, cells were challenged with drug candidates at different concentrations, and the final data were calculated from at least three replicates of the same experiment performed in triplicate. The fluorescence of 8 wells containing a medium without cells was used as a blank. Fluorescence data were normalized to 100% cell viability for nontreated cells. […]

MCF-7 = test: Resazurin reduction cell viability assay, MCF-7; format: cell-based, human; conditions: 72 h of treatment; mean ± sd
Experimental: as §1, §2, §3, §4

[1] = Immobilized artificial membrane (IAM) chromatography, log KW; format: physicochemical; conditions: IAM column; log k′ extrapolated to fully aqueous mobile phase
Experimental: (§5) Retention times, tR, were measured on two columns: (i) a standard C18 column (Phenomenex Phenosphere-NEXT, 250 × 4.6 mm, 5 μm) and (ii) an IAM.PC.DD.2 column (Regis, 10 cm × […], 10 μm packing 300 Å pore size), prepared by covalently bonding cell-membrane-forming phospholipids to silica. On (i), a chromatogram was performed for each complex (0.25 mM) in a fixed eluent composition (30% methanol/70% aqueous 15 mM formic acid; flow rate 0.5 mL·min^−1) using a Waters HPLC-MS instrument (equipped with an Alliance 2695 separation module, a 2487 dual lambda absorbance detector, and a 3100 mass detector). The UV-vis detector was set at 210 nm. In (ii), the mobile phase consisted of 20 mM ammonium acetate buffer at pH 6.9 and acetonitrile flowing at 1 mL·min^−1. The samples were dissolved in the mobile phase in a concentration range of 50–100 μg·mL^−1. An HPLC Varian ProStar instrument equipped with a 410 autosampler, a PDA 335 LC detector, and Galaxie Chromatography Data System Version 1.9.302.952 was used.
(§6) The different tRs were used to calculate log k′, which is the logarithm of the retention factor k′ = (tR − t0)/t0, where t0 is the column dead time (i.e., the tR of KCl or citric acid used as the internal reference for (i) and (ii), respectively).
In the case of IAM, the log KW values were calculated by an extrapolation method. Log k′ values were determined at a minimum of three different percentages of acetonitrile (ϕ) in the mobile phases (from 10 to 50%, v/v), and the intercept values of the linear relationships between log k′ and ϕ values were assumed as log KW [65, 66].
Immobilized artificial membrane (IAM) chromatography is a complementary technique for evaluating the interaction of a drug with the cellular membrane. In this technique, the stationary silica phase is covalently bonded to phospholipids, giving a material that is more similar to the cell membrane than the simpler aliphatic chains of the RP-HPLC columns. The log KW values (i.e., log k′ values extrapolated at fully aqueous mobile phase) show the same trend for the three Pt(IV) complexes (log KW = −0.64, −1.06, −0.96, and −0.83 for cisplatin, 1, 2, and 3, respectively) (Table 1).

[2] = RP-HPLC lipophilicity (log k′) on C18 column; format: physicochemical; conditions: 30% methanol/70% aqueous 15 mM formic acid
Experimental: as §5, §6
The lipophilicity of a compound is commonly described by the octanol-water partition coefficient, log Po/w, which can be defined as the ratio of the concentration of the compound between the organic (n-octanol) and the aqueous phase. However, other faster methods, such as RP-HPLC, have often been used to evaluate lipophilicity instead of the shake-flask method. […] Therefore, the retention times (tR) of the complexes were determined on a C18 column using a 70/30 (% v/v) water/MeOH mixture as an eluent, and the data were expressed as log k′ (k′ = (tR − t0)/t0, where t0 is the column dead time of the column). The trend of the measured log k' was 3 > 2 > cisplatin > 1, as expected based on the structure of the complexes, the acetato ligand being more lipophilic than the hydroxido one (Table 1).

N.N.[Cl][Pt][Cl] [Cisplatin, (SP-4-2)-diamminedichloridoplatinum(II)]
IC50 (HCT 116): 2.3 ± 0.3 µM | IC50 (MCF-7): 6.46 ± 0.91 µM | Log KW [1]: −0.64

N.N.[OH][Pt]([OH])([Cl])[Cl] [Complex 1, (OC-6-33)-diamminedichloridodihydroxidoplatinum(IV)]
IC50 (HCT 116): 22.9 ± 3.89 µM | IC50 (MCF-7): 78.1 ± 5.6 µM | Log KW [1]: −1.06 | Log k′ [2]: −1.50

CC(=O)[O][Pt]([OH])([Cl])[Cl].N.N [Complex 2, (OC-6-44)-acetatodiamminedichloridohydroxidoplatinum(IV)]
IC50 (HCT 116): 1.46 ± 0.02 µM | IC50 (MCF-7): 8.86 ± 3.45 µM | Log KW [1]: −0.96 | Log k′ [2]: −1.10

CC(=O)[O][Pt]([NH2])([NH2])([Cl])([Cl])[O]C(C)=O [Complex 3, (OC-6-33)-diamminedichloridodiacetatoplatinum(IV)]
IC50 (HCT 116): 55.3 ± 1.69 µM | IC50 (MCF-7): > 100 µM | Log KW [1]: −0.83 | Log k′ [2]: −0.84
